Laboratory results from patent publication US12612411B1, “Imidazopyrazine derivatives, process for preparation thereof, and their uses as luciferins” (INSTITUT PASTEUR, priority 2017, dated 2026).

Target: T1, nanoKAZ luciferase (Oplophorus gracilirostris, UniProt Q9GV45, A31E/A60N/A81I/F95D/I117V/K70R/L54V/L99Q/M102K/N193R/P142E/Q151K/Q38R/Q45L/V71I/Y165I)
T1 construct: luciferase catalytic domain (nanoKAZ, 19 kDa) from the Oplophorus-derived luciferase; host or cells: cell-free: 1-Step Human Coupled IVT Kit, pT7CFE1-based vector
Experiment: In vitro bioluminescence screening of imidazo[1,2-a]pyrazin-3(7H)-ones with nanoKAZ expressed in vitro (96-well luminometer, 2 h kinetic)
Assay type: biochemical
Settings: Table 1; furimazine = 1
Method: General protocol for the generation of solutions of imidazo[1,2-a]pyrazin-3(7H)-one Q by acidic hydrolysis of imidazo[1,2-a]pyrazin-3-yl acetate derivatives P. The considered acetate P (1 mg) was dissolved in DMSO (0.2 mL) and then diluted by adding a solution of acidic ethanol (0.3 ml) made from the addition of 37% hydrochloric acid (100 μl) on 100% ethanol (12 mL). This 0.5 mL solution was incubated at 50° C. for 2 hours to give a stock solution which was then stored at −80° C. […] Nota: these conditions are only adapted to the hydrolysis of the protecting group (as defined above) of the oxygen on position 2 of the imidazo[1,2-a]pyrazine ring system and not to the hydrolysis of any additional acetyl groups eventually present elsewhere on the substrate of this reaction.
The representative bioluminescence curves shown in the FIG. 2 provided an assessment for furimazine (Q-1), 8-benzyl-2-(furan-2-ylmethyl)-6-(4-hydroxyphenyl)imidazo[1,2-a]pyrazin-3 (7/1)-one (Q-80), 8-(2-fluorobenzyl)-2-(furan-2-ylmethyl)-6-phenylimidazo[1,2-a]pyrazin-3(7H)-one (Q-84), and 8-(2-fluorobenzyl)-2-((5-methylfuran-2-yl)methyl)-6-phenylimidazo[1,2-a]pyrazin-3(7H)-one (Q-85) was obtained using a luciferase expressed in vitro as described in the following. The nanoKAZ DNA template was cloned into Thermo Scientific pT7CFE1-based vector and nanoKAZ was expressed using ThermoFisher Scientific 1-Step Human Coupled IVT Kit—DNA (ref. 88881) according to the manufacturer instructions. The resulting reaction mix was diluted 400 times in buffer (DPBS (Gibco)+0.1% (v/v) Tween 20) and conserved at −80° C. The screening of the imidazo[1,2-a]pyrazin-3(7H)-ones was performed in 96 well plates using 50 μL/well of a 1/20 dilution in DPBS (Gibco)+0.1% (v/v) Tween 20 of the nanoKAZ solution.
To illustrate the bioluminescence properties improvement achieved for many of the imidazo[1,2-a]pyrazin-3(7H)-ones described here, four values are provided in Table 1: maximum intensity (V1), signal half-life (V2), area under the curve for ten minutes (V3), and area under the curve for two hours (V4), normalized using furimazine (Q-1) as a reference.
The bioluminescence properties of the tested compounds are considered to be improved when at least one of the values V1-V4 is above 1, and when none of the V1-V4 values is 0.05 or below.
By following the hydrolysis protocol described above, the following imidazo[1,2-a]pyrazin-3(7H)-ones luciferins Q were made in situ from the corresponding O-protected imidazo[1,2-a]pyrazines P and evaluated for their bioluminescence properties (maximum intensity (V1), signal half-life (V2), area under the curve for […], normalized using furimazine (Q-1) as a reference): […]

T1 sequence (Q9GV45 other isoform, or with tags, fused parts or gaps with the stated changes): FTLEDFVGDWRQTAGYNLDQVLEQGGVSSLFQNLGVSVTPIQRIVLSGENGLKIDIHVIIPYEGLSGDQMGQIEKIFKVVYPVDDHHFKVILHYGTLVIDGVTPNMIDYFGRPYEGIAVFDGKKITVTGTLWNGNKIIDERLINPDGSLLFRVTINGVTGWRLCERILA

SMILES | V1: maximum intensity, normalized using furimazine (Q-1) as a reference | V3: area under the curve for ten minutes, normalized using furimazine (Q-1) as a reference | V4: area under the curve for two hours, normalized using furimazine (Q-1) as a reference
CCc1ccc(Cc2nc3c(Cc4ccccc4)[nH]c(-c4ccccc4)cn-3c2=O)o1 [Q-12, 8-benzyl-2-((5-ethylfuran-2-yl)methyl)-6-phenylimidazo[1,2-a]pyrazin-3(7H)-one] | 2.28 | 2.2 | 1.28
Cc1cccc(Cc2nc3c(Cc4ccccc4)[nH]c(-c4ccccc4)cn-3c2=O)c1 [Q-14, 8-benzyl-2-(3-methylbenzyl)-6-phenylimidazo[1,2-a]pyrazin-3(7H)-one] | 1.8 | 1.66 | 0.96
Cc1cc(Cc2nc3c(Cc4ccccc4)[nH]c(-c4ccccc4)cn-3c2=O)oc1C [Q-16, 8-benzyl-2-((4,5-dimethylfuran-2-yl)methyl)-6-phenylimidazo[1,2-a]pyrazin-3(7H)-one] | 2.07 | 1.88 | 0.93
COc1cccc(Cc2nc3c(Cc4ccccc4)[nH]c(-c4ccccc4)cn-3c2=O)c1 [Q-18, 8-benzyl-2-(3-methoxybenzyl)-6-phenylimidazo[1,2-a]pyrazin-3(7H)-one] | 1.53 | 1.41 | 0.97
O=c1c(Cc2ccccc2)nc2c(Cc3ccccc3)[nH]c(-c3ccccc3F)cn1-2 [Q-20, 2,8-dibenzyl-6-(2-fluorophenyl)imidazo[1,2-a]pyrazin-3(7H)-one] | 2 | 1.59 | 0.66
O=c1c(Cc2ccco2)nc2c(Cc3ccccc3)[nH]c(-c3ccccc3F)cn1-2 [Q-21, 8-benzyl-6-(2-fluorophenyl)-2-(furan-2-ylmethyl)imidazo[1,2-a]pyrazin-3(7H)-one] | 1.39 | 1.33 | 1.08
O=c1c(Cc2ccco2)nc2c(Cc3ccccc3)[nH]c(-c3c(F)cccc3F)cn1-2 [Q-27, 8-benzyl-6-(2,6-difluorophenyl)-2-(furan-2-ylmethyl)imidazo[1,2-a]pyrazin-3(7H)-one] | 1.04 | 1.02 | 0.97
O=c1c(Cc2ccc(C(F)(F)F)o2)nc2c(Cc3ccccc3)[nH]c(-c3ccccc3)cn1-2 [Q-28, 8-benzyl-6-phenyl-2-((5-(trifluoromethyl)furan-2-yl)methyl)imidazo[1,2-a]pyrazin-3(7H)-one] | 1.31 | 1.11 | 0.62
O=c1c(Cc2ccccc2)nc2c(Cc3ccccc3)[nH]c(-c3c(F)cccc3F)cn1-2 [Q-29, 2,8-dibenzyl-6-(2,6-difluorophenyl)imidazo[1,2-a]pyrazin-3(7H)-one] | 1.86 | 1.48 | 0.55
Cc1ccc(Cc2nc3c(Cc4ccccc4)[nH]c(-c4ccccc4F)cn-3c2=O)o1 [Q-34, 8-benzyl-6-(2-fluorophenyl)-2-((5-methylfuran-2-yl)methyl)imidazo[1,2-a]pyrazin-3(7H)-one] | 2.17 | 1.89 | 1.13
O=c1c(Cc2ccc(C3CC3)o2)nc2c(Cc3ccccc3)[nH]c(-c3ccccc3)cn1-2 [Q-36, 8-benzyl-2-((5-cyclopropylfuran-2-yl)methyl)-6-phenylimidazo[1,2-a]pyrazin-3(7H)-one] | 1.74 | 1.64 | 0.83
O=c1c(Cc2cccc(F)c2)nc2c(Cc3ccccc3)[nH]c(-c3ccccc3)cn1-2 [Q-41, 8-benzyl-2-(3-fluorobenzyl)-6-phenylimidazo[1,2-a]pyrazin-3(7H)-one] | 1.49 | 1.28 | 0.74
CCc1ccc(Cc2nc3c(Cc4ccccc4)[nH]c(-c4ccccc4F)cn-3c2=O)o1 [Q-51, 8-benzyl-2-((5-ethylfuran-2-yl)methyl)-6-(2-fluorophenyl)imidazo[1,2-a]pyrazin-3(7H)-one] | 2.59 | 2.33 | 1.19
Cc1ccc(Cc2nc3c(Cc4ccccc4)[nH]c(-c4cccc(F)c4)cn-3c2=O)o1 [Q-54, 8-benzyl-6-(3-fluorophenyl)-2-((5-methylfuran-2-yl)methyl)imidazo[1,2-a]pyrazin-3(7H)-one] | 2.73 | 2.32 | 1.22
O=c1c(Cc2ccccc2F)nc2c(Cc3ccccc3)[nH]c(-c3ccccc3)cn1-2 [Q-56, 8-benzyl-2-(2-fluorobenzyl)-6-phenylimidazo[1,2-a]pyrazin-3(7H)-one] | 1.84 | 1.51 | 0.7
CCc1ccc(Cc2nc3c(Cc4ccccc4)[nH]c(-c4ccccc4)cn-3c2=O)s1 [Q-58, 8-benzyl-2-((5-ethylthiophen-2-yl)methyl)-6-phenylimidazo[1,2-a]pyrazin-3(7H)-one] | 1.71 | 1.61 | 0.69
Cc1cc(Cc2nc3c(Cc4ccccc4)[nH]c(-c4ccccc4F)cn-3c2=O)oc1C [Q-61, 8-benzyl-2-((4,5-dimethylfuran-2-yl)methyl)-6-(2-fluorophenyl)imidazo[1,2-a]pyrazin-3(7H)-one] | 2.13 | 1.97 | 0.78
O=c1c(Cc2ccccc2)nc2c(Cc3ccccc3F)[nH]c(-c3ccccc3)cn1-2 [Q-72, 2-benzyl-8-(2-fluorobenzyl)-6-phenylimidazo[1,2-a]pyrazin-3(7H)-one] | 1.49 | 1.49 | 0.85
O=c1c(Cc2ccccc2)nc2c(Cc3cccc(F)c3)[nH]c(-c3ccccc3)cn1-2 [Q-73, 2-benzyl-8-(3-fluorobenzyl)-6-phenylimidazo[1,2-a]pyrazin-3(7H)-one] | 1.12 | 1.19 | 0.92
O=c1c(Cc2ccccc2)nc2c(Cc3ccccc3)[nH]c(-c3ccc(O)cc3)cn1-2 [Q-75, 2,8-dibenzyl-6-(4-hydroxyphenyl)imidazo[1,2-a]pyrazin-3(7H)-one, reference compound] | 2.03 | 0.45 | 0.11
